Assay results reported in US20250152552A1, “CANCER-CELL PROLIFERATION INHIBITOR AND CANCER-CELL-PROLIFERATION INHIBITION ENHANCER” (KYUSHU UNIVERSITY, NATIONAL UNIVERSITY CORPORATION, priority 2022, published 2025).

Columns and labels:
[1] = tested on: MC38 mouse colon cancer cell line; assay: Administration of EGC-M5 alone, subcutaneous MC38 tumor growth in mice (Comparative Example); type: in vivo; conditions: 16 days after transplantation; EGC-M5 5, 10, 20 and 30 mg/kg b.w. i.p. daily; vs control group, Tukey test
Description: After preparatory rearing, MC38 mouse colon cancer cell line was transplanted subcutaneously into the 6-weeks-old male C57BL/6 mice at an amount of 5.0×10^5 cells/mouse. Each group had 8 mice. EGC-M5 was dissolved in the PBS buffer containing 10% DMSO. 200 μL of EGC-M5 solution at a dose of 5 mg, 10 mg, 20 mg, and 30 mg/kg b.w. was intraperitoneally administered to the mice daily starting on day 4 after transplantation. The tumor volume was measured with the vernier calipers, and the growth of the tumor was evaluated with time.
Regarding to the mean (Mean) and the standard error (S.E.) of the tumor volume (natural logarithm) 16 days after transplantation, the significant difference between the control group (Control group) and the EGC-M5 administration group was assessed by Tukey's Multiple Comparison test.

[2] = mouse, oral administration; Biol. Pharm. Bull, 42, 212-221, 2019; cited from earlier work

Question: Which results are given for `O=C1CC[C@H](Cc2cc(O)cc(O)c2)O1` [EGC-M5, (R)-5-(3,5-dihydroxyphenyl)-γ-valerolactone]?
Answer: tumor volume (natural logarithm) [1]: no significant differences were observed in the tumor volume values; conjugates detected in serum [2]: the sulfate conjugate and the glucuronic acid conjugate of the compound of 5-(3,5-dihydroxyphenyl)-γ-valerolactone are detected in the serum
